Measured values published in US8466098B2, “Washing agent having stabilized enzymes” (Henkel AG & Co. KGaA, priority 2007, dated 2013).

Target: T1, Bacillus lentus alkaline protease F49 (Lederbergia lenta, UniProt P29599, A188P/L211D/S3T/V193M/V199I)
T1 sequence (P29599 with tags, fused parts or gaps A188P/V193M/V199I/L211D limits assumed): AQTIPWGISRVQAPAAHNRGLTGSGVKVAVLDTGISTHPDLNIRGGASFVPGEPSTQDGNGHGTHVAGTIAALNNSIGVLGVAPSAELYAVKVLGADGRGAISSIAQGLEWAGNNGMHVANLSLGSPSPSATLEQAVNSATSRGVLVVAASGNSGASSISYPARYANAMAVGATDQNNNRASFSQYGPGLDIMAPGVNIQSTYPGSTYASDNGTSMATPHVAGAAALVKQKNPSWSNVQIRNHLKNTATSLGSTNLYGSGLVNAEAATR
Test: Residual protease activity in the presence of an inhibitor (AAPFpNA substrate)
Format: biochemical
Conditions: compound 10 mM final concentration; incubation 5 min at pH 8.6 and 25° C.; batch without compound set at 100%
Description: In parallel reaction batches, the succinyl-alanine-alanine-proline-phenylalanine-para-nitroanilide substrate (AAPFpNA; Bachem L-1400) and 5×10^−9 or 1×10^−8 M of the protease were prepared in 100 mM BrijTM35 Tris buffer, […], 0.1% (w/v). The compounds to be tested (listed below) were added at a final concentration of 10 mM. They were each dissolved in anhydrous DMSO, the effects of DMSO on enzymatic activity having been corrected via the corresponding reference having the same quantity of DMSO but without the relevant compound. Incubation occurred for 5 min at pH 8.6 and 25° C. The corresponding reaction mixture with protease, but without the relevant compound, served as a comparison. The protease activity in these comparison batches was set at 100%.

Structure (SMILES) | residual protease activity
CCCCOP(=O)(O)OCCCC [V1, dibutyl phosphate] | 45%
O=P(O)(OCc1ccccc1)OCc1ccccc1 [V2, dibenzyl phosphate] | 56%
